Reference: ChEMBL document CHEMBL5038625, “Application of the dual-tail approach for the design and synthesis of novel Thiopyrimidine-Benzenesulfonamide hybrids as selective carbonic anhydrase inhibitors” (Eur J Med Chem, 2022)

Experiments:
COLO 205 = assay: Antiproliferative activity against human COLO 205 cells assessed as cell growth inhibition at 10 uM incubated for 24 hrs by sulforhodamine B assay; type: functional; settings: read-out: GI
M14 = assay: Antiproliferative activity against human M14 cells assessed as cell growth inhibition at 10 uM incubated for 24 hrs by sulforhodamine B assay; type: functional; settings: read-out: GI
DU-145 = assay: Antiproliferative activity against human DU-145 cells assessed as cell growth inhibition at 10 uM incubated for 24 hrs by sulforhodamine B assay; type: functional; settings: read-out: GI
SK-MEL-5 = assay: Antiproliferative activity against human SK-MEL-5 cells assessed as cell growth inhibition at 10 uM incubated for 24 hrs by sulforhodamine B assay; type: functional; settings: read-out: GI
CAKI-1 = assay: Antiproliferative activity against human CAKI-1 cells assessed as cell growth inhibition at 10 uM incubated for 24 hrs by sulforhodamine B assay; type: functional; settings: read-out: GI
HCT-116 = assay: Antiproliferative activity against human HCT-116 cells assessed as cell growth inhibition at 10 uM incubated for 24 hrs by sulforhodamine B assay; type: functional; settings: read-out: GI
MOLT-4 = assay: Antiproliferative activity against human MOLT-4 cells assessed as cell growth inhibition at 10 uM incubated for 24 hrs by sulforhodamine B assay; type: functional; settings: read-out: GI
HT-29 = assay: Antiproliferative activity against human HT-29 cells assessed as cell growth inhibition at 10 uM incubated for 24 hrs by sulforhodamine B assay; type: functional; settings: read-out: GI
UO-31 = assay: Antiproliferative activity against human UO-31 cells assessed as cell growth inhibition at 10 uM incubated for 24 hrs by sulforhodamine B assay; type: functional; settings: read-out: GI
[1] = Antiproliferative activity against human […] cells assessed as cell growth inhibition at 10 uM incubated for 24 hrs by sulforhodamine B assay; type: functional; settings: read-out: GI
MCF7 = assay: Antiproliferative activity against human MCF7 cells assessed as cell growth inhibition at 10 uM incubated for 24 hrs by sulforhodamine B assay; type: functional; settings: read-out: GI
Carbonic anhydrase 2 = Carbonic anhydrase 2 (Homo sapiens, UniProt P00918); assay: Inhibition of human CA2 preincubated for 15 mins by phenol red dye based stopped flow CO2 hydration assay
SR = assay: Antiproliferative activity against human SR cells assessed as cell growth inhibition at 10 uM incubated for 24 hrs by sulforhodamine B assay; type: functional; settings: read-out: GI
SN12C = assay: Antiproliferative activity against human SN12C cells assessed as cell growth inhibition at 10 uM incubated for 24 hrs by sulforhodamine B assay; type: functional; settings: read-out: GI
K562 = assay: Antiproliferative activity against human K562 cells assessed as cell growth inhibition at 10 uM incubated for 24 hrs by sulforhodamine B assay; type: functional; settings: read-out: GI
T47D = assay: Antiproliferative activity against human T47D cells assessed as cell growth inhibition at 10 uM incubated for 24 hrs by sulforhodamine B assay; type: functional; settings: read-out: GI
OVCAR-4 = assay: Antiproliferative activity against human OVCAR-4 cells assessed as cell growth inhibition at 10 uM incubated for 24 hrs by sulforhodamine B assay; type: functional; settings: read-out: GI
Carbonic anhydrase 9 = Carbonic anhydrase 9 (Homo sapiens, UniProt Q16790); assay: Inhibition of human CA9 preincubated for 15 mins by phenol red dye based stopped flow CO2 hydration assay
SF-539 = assay: Antiproliferative activity against human SF-539 cells assessed as cell growth inhibition at 10 uM incubated for 24 hrs by sulforhodamine B assay; type: functional; settings: read-out: GI
LOX IMVI = assay: Antiproliferative activity against human LOX IMVI cells assessed as cell growth inhibition at 10 uM incubated for 24 hrs by sulforhodamine B assay; type: functional; settings: read-out: GI
ACHN = assay: Antiproliferative activity against human ACHN cells assessed as cell growth inhibition at 10 uM incubated for 24 hrs by sulforhodamine B assay; type: functional; settings: read-out: GI
CCRF-CEM = assay: Antiproliferative activity against human CCRF-CEM cells assessed as cell growth inhibition at 10 uM incubated for 24 hrs by sulforhodamine B assay; type: functional; settings: read-out: GI
KM12 = assay: Antiproliferative activity against human KM12 cells assessed as cell growth inhibition at 10 uM incubated for 24 hrs by sulforhodamine B assay; type: functional; settings: read-out: GI
PC-3 = assay: Antiproliferative activity against human PC-3 cells assessed as cell growth inhibition at 10 uM incubated for 24 hrs by sulforhodamine B assay; type: functional; settings: read-out: GI
A549 = assay: Antiproliferative activity against human A549 cells assessed as cell growth inhibition at 10 uM incubated for 24 hrs by sulforhodamine B assay; type: functional; settings: read-out: GI
HCT-15 = assay: Antiproliferative activity against human HCT-15 cells assessed as cell growth inhibition at 10 uM incubated for 24 hrs by sulforhodamine B assay; type: functional; settings: read-out: GI
OVCAR-5 = assay: Antiproliferative activity against human OVCAR-5 cells assessed as cell growth inhibition at 10 uM incubated for 24 hrs by sulforhodamine B assay; type: functional; settings: read-out: GI
NCI-H226 = assay: Antiproliferative activity against human NCI-H226 cells assessed as cell growth inhibition at 10 uM incubated for 24 hrs by sulforhodamine B assay; type: functional; settings: read-out: GI
Malme-3M = assay: Antiproliferative activity against human Malme-3M cells assessed as cell growth inhibition at 10 uM incubated for 24 hrs by sulforhodamine B assay; type: functional; settings: read-out: GI
NCI-H522 = assay: Antiproliferative activity against human NCI-H522 cells assessed as cell growth inhibition at 10 uM incubated for 24 hrs by sulforhodamine B assay; type: functional; settings: read-out: GI
MDA-MB-468 = assay: Antiproliferative activity against human MDA-MB-468 cells assessed as cell growth inhibition at 10 uM incubated for 24 hrs by sulforhodamine B assay; type: functional; settings: read-out: GI
SK-MEL-2 = assay: Antiproliferative activity against human SK-MEL-2 cells assessed as cell growth inhibition at 10 uM incubated for 24 hrs by sulforhodamine B assay; type: functional; settings: read-out: GI
EKVX = assay: Antiproliferative activity against human EKVX cells assessed as cell growth inhibition at 10 uM incubated for 24 hrs by sulforhodamine B assay; type: functional; settings: read-out: GI
HL-60 = assay: Antiproliferative activity against human HL-60 cells assessed as cell growth inhibition at 10 uM incubated for 24 hrs by sulforhodamine B assay; type: functional; settings: read-out: GI
UACC-62 = assay: Antiproliferative activity against human UACC-62 cells assessed as cell growth inhibition at 10 uM incubated for 24 hrs by sulforhodamine B assay; type: functional; settings: read-out: GI
RXF 393 = assay: Antiproliferative activity against human RXF 393 cells assessed as cell growth inhibition at 10 uM incubated for 24 hrs by sulforhodamine B assay; type: functional; settings: read-out: GI
NCI-H23 = assay: Antiproliferative activity against human NCI-H23 cells assessed as cell growth inhibition at 10 uM incubated for 24 hrs by sulforhodamine B assay; type: functional; settings: read-out: GI
RPMI-8226 = assay: Antiproliferative activity against human RPMI-8226 cells assessed as cell growth inhibition at 10 uM incubated for 24 hrs by sulforhodamine B assay; type: functional; settings: read-out: GI
MDA-MB-231 = assay: Antiproliferative activity against human MDA-MB-231 cells assessed as cell growth inhibition at 10 uM incubated for 24 hrs by sulforhodamine B assay; type: functional; settings: read-out: GI

| Ki (Carbonic anhydrase 2) | Ki (Carbonic anhydrase 9) | Compound | inhibition of growth at 10 µM (SK-MEL-5) | inhibition of growth at 10 µM (CAKI-1) | inhibition of growth at 10 µM (HCT-116) | inhibition of growth at 10 µM (MOLT-4) | inhibition of growth at 10 µM (UO-31) | inhibition of growth at 10 µM (MCF7) | inhibition of growth at 10 µM (SN12C) | inhibition of growth at 10 µM (K562) | inhibition of growth at 10 µM (T47D) | inhibition of growth at 10 µM (OVCAR-4) | inhibition of growth at 10 µM (ACHN) | inhibition of growth at 10 µM (PC-3) | inhibition of growth at 10 µM (HCT-15) | further results |
| --- | --- | --- | --- | --- | --- | --- | --- | --- | --- | --- | --- | --- | --- | --- | --- | --- |
| > 20000 nM | 322 nM | NS(=O)(=O)c1ccc(Nc2cc(-c3ccccc3)nc(SCC(=O)c3ccc(Br)cc3)n2)cc1 | 5.28% | 19.4% | 8.87% | 15.8% | 19.4% | 26.9% | 13.3% | 22.8% | 10.3% | 7.69% | 9.12% | 8.3% | 28.4% | inhibition of growth at 10 µM (COLO 205): 9.34%; inhibition of growth at 10 µM (M14): 7.75%; inhibition of growth at 10 µM (DU-145): 5.84%; inhibition of growth at 10 µM (HT-29): 21.8%; inhibition of growth at 10 µM [1]: 14.2%; inhibition of growth at 10 µM (SR): 15.7%; inhibition of growth at 10 µM (SF-539): 5.75%; inhibition of growth at 10 µM (LOX IMVI): 12.7%; inhibition of growth at 10 µM (CCRF-CEM): 8.13%; inhibition of growth at 10 µM (KM12): 11.9%; inhibition of growth at 10 µM (A549): 6.27%; inhibition of growth at 10 µM (OVCAR-5): 5.54% |
| > 20000 nM | 380 nM | CC(C)c1nc(SCC(=O)c2ccc(Br)cc2)nc(Nc2ccc(S(N)(=O)=O)cc2)c1C#N | 5.21% | 12.2% | 6.95% | 13.7% | 31.2% | 6.24% | 5.41% | 9.23% | 33% | 6.52% | 6.53% | 12.5% | 7.17% | inhibition of growth at 10 µM (NCI-H226): 21.1%; inhibition of growth at 10 µM (Malme-3M): 11.7%; inhibition of growth at 10 µM (NCI-H522): 10.7%; inhibition of growth at 10 µM (MDA-MB-468): 15.3%; inhibition of growth at 10 µM (SK-MEL-2): 9.02%; inhibition of growth at 10 µM (EKVX): 10.7%; inhibition of growth at 10 µM (HL-60): 24.1%; inhibition of growth at 10 µM (UACC-62): 24.3%; inhibition of growth at 10 µM (RXF 393): 22.2%; inhibition of growth at 10 µM (NCI-H23): 20.2%; inhibition of growth at 10 µM (RPMI-8226): 12.3%; inhibition of growth at 10 µM (MDA-MB-231): 9.41% |
